From patent US5348975A, “7-chromanyl esters of phenols and benzoic acids having retinoid-like activity” (Allergan, Inc., priority 1993, dated 1994)

Key:
[1] = tested on: ornithine decarboxylase (ODC); conditions: literature background, cited from earlier work
[2] = tested on: ornithine decarboxylase (ODC); assay: inhibition of TPA-induced ornithine decarboxylase (ODC) activity (retinoic acid-like activity; essentially method of Verma & Boutwell); type: in vivo
Excerpt: The retionic acid like activity of these compounds was confirmed through the classic measure of retionic acid activity involving the effects of retionic acid on ornithine decarboxylase. The original work on the correlation between retinoic acid and decrease in cell proliferation was done by Verma & Boutwell, Cancer Research, 1977, 37, 2196-2201. That reference discloses that ornithine decarboxylase (ODC) activity increased precedent to polyamine biosynthesis. It has been established elsewhere that increases in polyamine synthesis can be correlated or associated with cellular proliferation. Thus, if ODC activity could be inhibited, cell hyperproliferation could be modulated.
By way of example of retinoic acid-like activity it is noted that in the assay conducted essentially in accordance with the method of Verma & Boutwell, ibid, the following examples of the preferred compounds of the present invention (Compounds 1, 2 and 3) elicited the following percent inhibition of TPA-induced ODC activity at the given calculations: […]

CCCCCCCCCCCCCC(=O)O[C@@H]1[C@@H](C)[C@@]2(O)[C@@H](C=C(CO)C[C@]3(O)C(=O)C(C)=C[C@@H]23)[C@@H]2C(C)(C)[C@]12OC(C)=O [TPA, 12-0-tetradecanoyl-phorbol-13-acetate]
induction of ODC activity (in words) ([1]; TPA): induces ODC activity

CC1(C)CC(C)(C)c2ccc(C(=O)Oc3ccc(C(=O)OCc4ccccc4)cc3)cc2O1 [Compound 2, Benzyl 4-(2,2,4,4,tetramethyl-7-chromanoyloxy)benzoate]
% inhibition of TPA-induced ODC activity ([2]; Dose 300 nmol): 84%

CC1=C(/C=C/C(C)=C/C=C/C(C)=C/C(=O)O)C(C)(C)CCC1 [Retinoic acid]
inhibition of TPA induction of ODC activity (in words) ([1]; retinoic acid): inhibits this induction of ODC activity by TPA

CC1(C)CC(C)(C)c2ccc(C(=O)Oc3ccc(C(=O)O)cc3)cc2O1 [Compound 3, 4-(2,2,4,4-tetramethyl-7-chromanoyloxy) benzoic acid]
% inhibition of TPA-induced ODC activity ([2]; Dose 30 nmol): 86%

CCOC(=O)c1ccc(OC(=O)c2ccc3c(c2)OC(C)(C)CC3(C)C)cc1 [Compound 1, Ethyl 4-(2,2,4,4-tetramethyl-7-chromanoyloxy) benzoate]
% inhibition of TPA-induced ODC activity ([2]; Dose 30 nmol): 100%
